In PMC6649263 (ACS Omega, 2019):

Key:
Type in all cases: biochemical
[1] = molecular target: electric eel AChE (Electrophorus electricus, UniProt O42275); experiment: Cholinesterase enzyme inhibition assay
[2] = molecular target: horse serum BChE (Equus caballus, UniProt P81908); experiment: Cholinesterase enzyme inhibition assay
[3] = molecular target: hGSK-3β (Homo sapiens, UniProt P49841); experiment: GSK-3β Kinase-Glo enzyme inhibition assay, with enzyme kinetics
[4] = molecular target: human recombinant β-secretase (BACE1) (Homo sapiens, UniProt P56817); experiment: BACE1 FRET enzyme inhibition assay, with enzyme kinetics; settings: IC50 BACE1, mean ± SD, triplicate
human recombinant β-secretase (BACE1), sequence (P56817 46-501): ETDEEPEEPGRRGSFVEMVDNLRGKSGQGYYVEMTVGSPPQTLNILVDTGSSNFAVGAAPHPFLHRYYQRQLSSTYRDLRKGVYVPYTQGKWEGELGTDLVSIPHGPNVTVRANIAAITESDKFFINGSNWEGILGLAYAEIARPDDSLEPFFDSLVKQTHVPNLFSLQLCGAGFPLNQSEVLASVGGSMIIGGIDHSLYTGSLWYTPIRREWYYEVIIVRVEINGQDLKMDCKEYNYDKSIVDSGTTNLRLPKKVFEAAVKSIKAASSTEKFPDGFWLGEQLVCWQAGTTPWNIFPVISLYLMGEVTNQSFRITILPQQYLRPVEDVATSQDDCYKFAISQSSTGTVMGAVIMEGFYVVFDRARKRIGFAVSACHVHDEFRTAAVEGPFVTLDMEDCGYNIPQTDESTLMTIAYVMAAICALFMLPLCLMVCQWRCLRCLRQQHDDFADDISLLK

electric eel AChE, sequence (O42275 24-633): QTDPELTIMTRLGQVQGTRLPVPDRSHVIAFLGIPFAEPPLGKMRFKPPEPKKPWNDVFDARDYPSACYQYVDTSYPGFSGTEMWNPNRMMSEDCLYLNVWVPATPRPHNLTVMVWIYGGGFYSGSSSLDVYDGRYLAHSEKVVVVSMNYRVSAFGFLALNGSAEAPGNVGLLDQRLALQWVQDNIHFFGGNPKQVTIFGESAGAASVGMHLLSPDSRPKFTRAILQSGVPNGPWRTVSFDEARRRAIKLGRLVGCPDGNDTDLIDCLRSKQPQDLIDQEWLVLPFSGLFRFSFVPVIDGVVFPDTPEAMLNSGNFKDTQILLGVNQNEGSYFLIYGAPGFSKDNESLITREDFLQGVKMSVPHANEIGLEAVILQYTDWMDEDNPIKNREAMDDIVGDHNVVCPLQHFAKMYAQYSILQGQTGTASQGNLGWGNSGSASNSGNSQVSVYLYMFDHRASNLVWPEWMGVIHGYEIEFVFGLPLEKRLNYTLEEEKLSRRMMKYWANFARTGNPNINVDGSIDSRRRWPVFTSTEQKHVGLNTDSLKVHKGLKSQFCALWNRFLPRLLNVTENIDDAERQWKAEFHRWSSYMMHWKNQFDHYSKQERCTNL
hGSK-3β, sequence (P49841 whole entry): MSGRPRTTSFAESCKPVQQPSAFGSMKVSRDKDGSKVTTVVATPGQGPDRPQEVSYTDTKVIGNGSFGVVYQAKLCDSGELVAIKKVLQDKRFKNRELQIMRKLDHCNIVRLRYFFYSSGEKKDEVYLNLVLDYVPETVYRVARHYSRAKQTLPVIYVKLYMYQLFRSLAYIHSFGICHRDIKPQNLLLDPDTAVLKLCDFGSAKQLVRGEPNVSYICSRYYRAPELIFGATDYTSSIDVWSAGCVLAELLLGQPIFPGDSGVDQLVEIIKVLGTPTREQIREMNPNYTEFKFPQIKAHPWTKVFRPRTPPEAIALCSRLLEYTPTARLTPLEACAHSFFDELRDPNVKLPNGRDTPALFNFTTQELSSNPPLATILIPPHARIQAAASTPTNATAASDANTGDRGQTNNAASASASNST
horse serum BChE, sequence (P81908 whole entry): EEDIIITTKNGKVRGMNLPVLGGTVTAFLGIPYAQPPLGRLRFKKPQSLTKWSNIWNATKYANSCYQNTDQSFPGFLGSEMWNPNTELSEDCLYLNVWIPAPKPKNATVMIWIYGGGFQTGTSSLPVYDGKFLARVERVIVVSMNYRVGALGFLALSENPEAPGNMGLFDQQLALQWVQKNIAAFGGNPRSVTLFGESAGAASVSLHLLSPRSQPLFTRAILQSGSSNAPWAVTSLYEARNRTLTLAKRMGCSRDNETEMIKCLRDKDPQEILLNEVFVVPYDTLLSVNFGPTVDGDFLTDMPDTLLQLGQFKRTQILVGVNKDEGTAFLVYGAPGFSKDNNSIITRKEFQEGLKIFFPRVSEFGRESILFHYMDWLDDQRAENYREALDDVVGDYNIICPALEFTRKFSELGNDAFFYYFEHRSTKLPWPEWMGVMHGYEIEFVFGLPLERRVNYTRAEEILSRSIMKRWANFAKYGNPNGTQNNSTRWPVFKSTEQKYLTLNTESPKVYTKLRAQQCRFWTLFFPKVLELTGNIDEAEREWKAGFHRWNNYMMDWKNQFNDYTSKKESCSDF

CC(C)=CCC/C(C)=C/Cc1c(O)ccc2cc(-c3cc(O)cc(O)c3CC=C(C)C)oc12 [mulberrofuran D (1), mulberrofuran D]
IC50 [1]: 23 ± 1.15 µM
IC50 [2]: 6.12 ± 1.41 µM
IC50 [3]: 8.12 ± 0.66 µM

C[C@@]12C=C(c3c(O)cc(-c4cc5ccc(O)cc5o4)cc3O)C[C@@H](C1)c1ccc(O)cc1O2 [mulberrofuran H (3), mulberrofuran H]
IC50 [1]: > 200 µM
IC50 [2]: 64.5 ± 3.1 µM
IC50 [4]: 1.04 ± 0.78 µM
IC50 [3]: 4.41 ± 0.3 µM
